Measured values as given in ChEMBL document CHEMBL4011590, “Structure-activity relationship studies on 3,5-dinitrophenyl tetrazoles as antitubercular agents” (Eur J Med Chem, 2017).
Converted amounts (≈) assume the structure as drawn.

Columns and labels:
Assay type in all cases: functional
[1] = tested on: Mycobacterium tuberculosis; assay: Antimycobacterial activity against Mycobacterium tuberculosis H37Rv CNCTC My 331/88 after 14 days by micromethod; settings: H37Rv CNCTC My 331/88, 336 h
[2] = tested on: Mycobacterium tuberculosis; assay: Antimycobacterial activity against Mycobacterium tuberculosis H37Rv CNCTC My 331/88 after 21 days by micromethod; settings: H37Rv CNCTC My 331/88, 504 h
Mycobacterium avium [3] = assay: Antimycobacterial activity against Mycobacterium avium CNCTC My 330/80 after 14 days by micromethod; settings: CNCTC My 330/80, 336 h
Mycobacterium avium [4] = assay: Antimycobacterial activity against Mycobacterium avium CNCTC My 330/80 after 21 days by micromethod; settings: CNCTC My 330/80, 504 h
Mycobacterium kansasii [5] = assay: Antimycobacterial activity against Mycobacterium kansasii CNCTC My 235/80 after 7 days by micromethod; settings: CNCTC My 235/80, 168 h
Mycobacterium kansasii [6] = assay: Antimycobacterial activity against Mycobacterium kansasii CNCTC My 235/80 after 14 days by micromethod; settings: CNCTC My 235/80, 336 h
Mycobacterium kansasii [7] = assay: Antimycobacterial activity against Mycobacterium kansasii CNCTC My 235/80 after 21 days by micromethod; settings: CNCTC My 235/80, 504 h
Mycobacterium kansasii [8] = assay: Antimycobacterial activity against Mycobacterium kansasii isolate 6509/96 after 7 days by micromethod; settings: isolate 6509/96, 168 h
Mycobacterium kansasii [9] = assay: Antimycobacterial activity against Mycobacterium kansasii isolate 6509/96 after 14 days by micromethod; settings: isolate 6509/96, 336 h
Mycobacterium kansasii [10] = assay: Antimycobacterial activity against Mycobacterium kansasii isolate 6509/96 after 21 days by micromethod; settings: isolate 6509/96, 504 h

Structure (SMILES) | MIC99 [1] [µM] | MIC99 [2] [µM] | MIC99 (Mycobacterium avium [3]) [µM] | MIC99 (Mycobacterium avium [4]) [µM] | MIC99 (Mycobacterium kansasii [5]) [µM] | MIC99 (Mycobacterium kansasii [6]) [µM] | MIC99 (Mycobacterium kansasii [7]) [µM] | MIC99 (Mycobacterium kansasii [8]) [µM] | MIC99 (Mycobacterium kansasii [9]) [µM] | MIC99 (Mycobacterium kansasii [10]) [µM]
O=[N+]([O-])c1cc(-c2nnn(Cc3ccc(F)c(F)c3)n2)cc([N+](=O)[O-])c1 | 0.25 (≈ 0.0906 µg/mL) | 0.5 (≈ 0.181 µg/mL) | 4 (≈ 1.45 µg/mL) | 8 (≈ 2.9 µg/mL) | 1 (≈ 0.362 µg/mL) | 2 (≈ 0.725 µg/mL) | 4 (≈ 1.45 µg/mL) | 1 (≈ 0.362 µg/mL) | 2 (≈ 0.725 µg/mL) | 2 (≈ 0.725 µg/mL)
CCCn1nnc(-c2cc([N+](=O)[O-])cc([N+](=O)[O-])c2)n1 | 8 (≈ 2.23 µg/mL) | 16 (≈ 4.45 µg/mL) | 32 (≈ 8.9 µg/mL) | 62.5 (≈ 17.4 µg/mL) | 16 (≈ 4.45 µg/mL) | 32 (≈ 8.9 µg/mL) | 32 (≈ 8.9 µg/mL) | 16 (≈ 4.45 µg/mL) | 32 (≈ 8.9 µg/mL) | 32 (≈ 8.9 µg/mL)
CCCCCCCCCCCCCCCCn1nnnc1SCn1nnc(-c2cc([N+](=O)[O-])cc([N+](=O)[O-])c2)n1 | 4 (≈ 2.3 µg/mL) | 8 (≈ 4.6 µg/mL) | 125 (≈ 71.8 µg/mL) | 250 (≈ 144 µg/mL) | 16 (≈ 9.2 µg/mL) | 32 (≈ 18.4 µg/mL) | 32 (≈ 18.4 µg/mL) | 8 (≈ 4.6 µg/mL) | 16 (≈ 9.2 µg/mL) | 32 (≈ 18.4 µg/mL)
O=[N+]([O-])c1cc(-c2nnn(CCCSc3nnnn3-c3ccc(Cl)c(Cl)c3)n2)cc([N+](=O)[O-])c1 | 0.25 (≈ 0.131 µg/mL) | 0.25 (≈ 0.131 µg/mL) | 4 (≈ 2.09 µg/mL) | 8 (≈ 4.19 µg/mL) | 0.25 (≈ 0.131 µg/mL) | 0.5 (≈ 0.262 µg/mL) | 0.5 (≈ 0.262 µg/mL) | 0.25 (≈ 0.131 µg/mL) | 0.5 (≈ 0.262 µg/mL) | 0.5 (≈ 0.262 µg/mL)
COc1ccccc1-n1nnnc1Sc1cc([N+](=O)[O-])cc([N+](=O)[O-])c1 | 4 (≈ 1.5 µg/mL) | 8 (≈ 2.99 µg/mL) | 16 (≈ 5.99 µg/mL) | 32 (≈ 12 µg/mL) | 16 (≈ 5.99 µg/mL) | 32 (≈ 12 µg/mL) | 62.5 (≈ 23.4 µg/mL) | 8 (≈ 2.99 µg/mL) | 32 (≈ 12 µg/mL) | 32 (≈ 12 µg/mL)
O=[N+]([O-])c1cc(-c2nnn(CCCCSc3nnnn3-c3ccc(Cl)c(Cl)c3)n2)cc([N+](=O)[O-])c1 | 0.25 (≈ 0.134 µg/mL) | 0.25 (≈ 0.134 µg/mL) | 2 (≈ 1.07 µg/mL) | 4 (≈ 2.15 µg/mL) | 0.5 (≈ 0.269 µg/mL) | 1 (≈ 0.537 µg/mL) | 1 (≈ 0.537 µg/mL) | 0.5 (≈ 0.269 µg/mL) | 1 (≈ 0.537 µg/mL) | 1 (≈ 0.537 µg/mL)
O=[N+]([O-])c1cc(-c2nnn(CCCSc3nnnn3-c3ccc(Br)cc3)n2)cc([N+](=O)[O-])c1 | 0.5 (≈ 0.267 µg/mL) | 0.5 (≈ 0.267 µg/mL) | 1 (≈ 0.533 µg/mL) | 2 (≈ 1.07 µg/mL) | 0.5 (≈ 0.267 µg/mL) | 1 (≈ 0.533 µg/mL) | 2 (≈ 1.07 µg/mL) | 0.5 (≈ 0.267 µg/mL) | 1 (≈ 0.533 µg/mL) | 1 (≈ 0.533 µg/mL)
Cn1nnc(-c2cc([N+](=O)[O-])cc([N+](=O)[O-])c2)n1 | 32 (≈ 8.01 µg/mL) | 32 (≈ 8.01 µg/mL) | 62.5 (≈ 15.6 µg/mL) | 125 (≈ 31.3 µg/mL) | 62.5 (≈ 15.6 µg/mL) | 125 (≈ 31.3 µg/mL) | 125 (≈ 31.3 µg/mL) | 62.5 (≈ 15.6 µg/mL) | 62.5 (≈ 15.6 µg/mL) | 62.5 (≈ 15.6 µg/mL)
O=[N+]([O-])c1cc(Sc2nnnn2-c2ccccc2)cc([N+](=O)[O-])c1 | 2 (≈ 0.689 µg/mL) | 4 (≈ 1.38 µg/mL) | 16 (≈ 5.51 µg/mL) | 16 (≈ 5.51 µg/mL) | 8 (≈ 2.75 µg/mL) | 8 (≈ 2.75 µg/mL) | 16 (≈ 5.51 µg/mL) | 4 (≈ 1.38 µg/mL) | 8 (≈ 2.75 µg/mL) | 8 (≈ 2.75 µg/mL)
O=[N+]([O-])c1cc(-c2nnn(CCSc3nnnn3-c3ccc(Cl)c(Cl)c3)n2)cc([N+](=O)[O-])c1 | 0.25 (≈ 0.127 µg/mL) | 0.25 (≈ 0.127 µg/mL) | 2 (≈ 1.02 µg/mL) | 4 (≈ 2.04 µg/mL) | 0.25 (≈ 0.127 µg/mL) | 0.5 (≈ 0.255 µg/mL) | 1 (≈ 0.509 µg/mL) | 0.5 (≈ 0.255 µg/mL) | 1 (≈ 0.509 µg/mL) | 1 (≈ 0.509 µg/mL)
